Earlier results on one substance are cited in patent US20220370506A1, “AUGMENTATION OF FIBROBLAST MEDIATED REGENERATION OF INTRAVERTEBRAL DISCS” (FIGENE, LLC, priority 2019, published 2022).

This data set relates to patients with chronic lumbosacral radiculopathy or discogenic low back pain.
Setting [1] is: authors' conclusion, single low dose intradiscal.

Take etanercept: where the note is “1-month follow-up, 0.1, 0.25, 0.5, 0.75, 1.0, or 1.5 mg intradiscally in each pain-generating disc, any dose range or subgroup”, the “pain scores between or within groups” value is reported as “no differences”. In addition, the “disability scores between or within groups” value (1-month follow-up, 0.1-1.5 mg intradiscally, any dose range or subgroup) is “no differences”. Also, under setting [1], the “effectiveness as treatment for chronic radicular or discogenic low back pain” value is given as “does not seem to be an effective treatment” and the serious side effects entry is “no serious side effects were observed”. Also, the complications entry (intradiscal 0.1-1.5 mg, 36 patients) is recorded as “No complications were reported”. Also, the “preprocedure versus postprocedure leukocyte counts” value (intradiscal 0.1-1.5 mg, 1-month follow-up) is listed as “no differences were noted”.
